Reference: paper PMC7590512, “Lysosomal cathepsin creates chimeric epitopes for diabetogenic CD4 T cells via transpeptidation” (The Journal of Experimental Medicine, 2020)

Key:
livCat-L and recCat-L = conditions: MS/MS
BDC-10.1 T cell = conditions: for stimulation of BDC-10.1 (IL-2): M12.C3.g7 APCs, peptides at the concentrations used in the digests, average of three experiments
Excerpt: (§1) For APCs, we used the IA^g7-expressing M12.C3 B cell lymphoma (M12.C3.g7; [Carrasco-Marin et al., 1996]). Four T cell hybridomas were used in various stimulation assays. BDC-2.5 and BDC-10.1 were provided by Dr. Kathryn Haskins (University of Colorado Medical School, Aurora, CO). G7W120 was produced in this laboratory ([Jin et al., 2015]). The insulin B:9-23 reactive AS91 T cell hybridoma ([Levisetti et al., 2007]) was provided by Dr. Emil Unanue (Washington University, St. Louis, MO). T cell hybridomas (10^5 cells) were mixed with either 10^5 paraformaldehyde-fixed APCs or 10^5 unfixed APCs and cultured overnight with various concentrations of synthetic peptide or volumes of a pH-adjusted cathepsin digestion mixture in a final volume of 250 µl. Secreted IL-2 was assayed with a functional assay where the growth and survival of an HT-2 IL-2–dependent cell line was quantified using the dye MTT ([White et al., 2000]) and reported as units per milliliter based on comparison to an IL-2 standard.

Cat-L [1] = conditions: estimated by comparison with control peptide LQTLALWSRMDQL; C-peptide plus WE14 with Cat-L
Excerpt: as §1

Cat-L [2] = test system: Cat-L
[3] = test system: BDC-2.5, BDC-10.1, and G7W-120 T cells
ChgA-specific T cells = conditions: words; ref Stadinski et al., 2010a; cited from earlier work

## C-peptide
livCat-L and recCat-L
  cleavage of mouse C-peptide: The cleavage after TLAL was found in both digests
BDC-10.1 T cell
  stimulation of BDC-10.1 (IL-2): neither C-peptide nor WE14 alone had any activity
Cat-L [1]
  C-peptide converted to a stimulatory peptide: 2.5–5%

## LQTLALWSRMDQL
BDC-10.1 T cell
  stimulation of BDC-10.1 (IL-2): highly stimulatory

## RKLLW-NH2
Cat-L [2]; increasing inhibitor concentrations (44-350 µM)
  inhibition of generation of the active peptide, words: inhibited by RKLLW-NH2 in a dose-dependent manner
Cat-L [2]; inhibitor at same concentration as C-peptide substrate, livCat-L or recCat-L, preincubated 30 min on ice
  inhibition of generation of the active peptide by Cat-L: ~50%
BDC-10.1 T cell; control for nonspecific inhibition of the stimulation assay
  inhibition of BDC-10.1 response to 0.17 µM LQTLALWSRMDQL by carried-over inhibitor: not inhibitory

## WSRMDQLAKELTAE [WE14]
[3]
  stimulation of three T cells (IL-2): inactive at the concentrations tested here
BDC-10.1 T cell
  stimulation of BDC-10.1 (IL-2): neither C-peptide nor WE14 alone had any activity
ChgA-specific T cells
  agonism for BDC-2.5 and other ChgA-specific T cells: weak agonist
